Results on 17 molecules are retold here after article PMC7114316 (Antiviral Research, 2019).

Like-named read-outs stand apart in the source and are kept apart here.

A short description of one series: Cytotoxicity assay. Conditions: cat, CRFK cells. In kind it is cell-based, feline.
Series [1] has as its system FIPV strain 79–1146. Nature of the series: Antiviral assay, post-viral entry activity. Conditions: for EC50: read-out: Post-viral entry EC50, IPMA; for Post-viral entry SI: SI = CC50/EC50. In kind it is cell-based, feline infectious peritonitis virus.
The next series concerns the target FIPV 3CL^pro (Feline coronavirus, UniProt Q98VG9). Briefly: FIPV 3CLpro protease inhibition assay. It counts as biochemical, feline infectious peritonitis virus (FIPV strain 79–1146). Conditions: for IC50: 35 nM enzyme, 6 μM fluorogenic substrate.
Another series addresses HIV-1 integrase. Conditions: read-out: IC50, anti-HIV-1 integrase activities; ref Neamati et al., 1997; cited from earlier work.
In series [2] the test system is FIPV strain 79–1146. Briefly: Antiviral assay, pre-viral entry activity. In kind it is cell-based, feline infectious peritonitis virus. Conditions: for EC50: 24 h, read-out: Pre-viral entry EC50, IPMA; for Pre-viral entry SI: SI = CC50/EC50.
In series [3] the test system is FIPV strain 79–1146. Briefly: Antiviral assay, prophylactic activity. In kind it is cell-based, feline infectious peritonitis virus. Conditions: for EC50: read-out: Prophylactic antiviral activity EC50, IPMA; for Prophylactic antiviral activity SI: SI = CC50/EC50; for concentration that completely protects the cells from virus infection: prophylactic or protective activity.

Another series deals with CRFK cells. Briefly: Cytotoxicity assay. It counts as cell-based, feline. Conditions: read-out: Cytotoxicity CC50, 48 h, MTS assay. For orientation: Tetrazolium dyes change colour on reduction, which living cells bring about.
Series [4] has as its system FIPV strain 79–1146. Nature of the series: Antiviral assay in FIPV-infected CRFK cells, summary over the test conditions. Conditions: for control of FIPV infection under all the tested conditions: result in words; for EC50: Alphacoronavirus 1, CRFK, read-out: EC50, range over antiviral test conditions. In kind it is cell-based, feline infectious peritonitis virus.
In the next series the test system is 3CL^pro of SARS-CoV. Conditions: read-out: IC50, 3CL^pro of SARS-CoV; cited from earlier work.
[5] abbreviates: Protease inhibition assay (IC50).
[6] abbreviates: 100 TCID50 FIPV adsorption at 37 °C for 2 h before adding the tested compounds, CRFK cells.
[7] abbreviates: read-out: Protease inhibition assay (IC50).
The mark [8] stands for this setting: 100 TCID50 FIPV incubation with compounds, CRFK cells.
The mark [9] stands for this setting: compound incubation at 37 °C for 2 h before inoculation with FIPV at 100 TCID50/well, CRFK cells.

Sequence of FIPV 3CL^pro (Q98VG9 2904-3205 limits assumed): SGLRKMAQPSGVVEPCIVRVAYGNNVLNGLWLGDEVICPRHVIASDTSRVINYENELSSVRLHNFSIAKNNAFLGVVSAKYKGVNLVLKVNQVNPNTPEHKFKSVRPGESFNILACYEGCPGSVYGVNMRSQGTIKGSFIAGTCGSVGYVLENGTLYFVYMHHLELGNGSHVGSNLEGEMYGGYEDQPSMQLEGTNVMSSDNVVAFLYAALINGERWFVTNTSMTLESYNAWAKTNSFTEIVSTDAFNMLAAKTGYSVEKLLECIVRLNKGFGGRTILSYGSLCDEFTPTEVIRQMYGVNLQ

In general, CC50 refers to the concentration giving 50% cytotoxicity. In general, EC50 refers to the concentration that produces a half-maximal response. A word on the Ki: it is a dissociation constant, usually derived from enzyme kinetics or from competition with a known ligand. A higher Ki goes with weaker binding. The term IC50 denotes the point on the concentration scale where inhibition reaches its midpoint. With `COc1cc(C)c2c(c1C=O)Oc1c(c(C)c(O)c3c1C(O)OC3=O)OC2=O` (centres unmarked) [NSC87511, Stictic acid], the cytotoxic concentration (CC50) at 48 h in “Cytotoxicity assay” came to 371.9 ± 0.26 µM. Moreover, the concentration for a half-maximal effect (EC50) in the series with FIPV strain 79–1146 [1] (Alphacoronavirus 1, CRFK) was determined as 21.8 ± 1.64 µM; with FIPV strain 79–1146 [2] (Alphacoronavirus 1, CRFK) it was 16.2 ± 1.33 µM; with FIPV strain 79–1146 [3] (Alphacoronavirus 1, CRFK) it was 26.9 ± 1.25 µM. Also, the “Post-viral entry SI” value with FIPV strain 79–1146 [1] was 17.04. The molecule also had an inhibitory constant (Ki) on FIPV 3CL^pro (Ki value, competitive inhibition, 35 nM FIPV 3CL^pro, substrate 3 to 40 μM) of 17 ± 1.8 µM. The IC50 on FIPV 3CL^pro (setting [5]) was 29.4 ± 4.6 µM; on HIV-1 integrase, less than 50 µM. Further, in the series on FIPV strain 79–1146 [2], the “Pre-viral entry SI” value is listed as 22.90. In addition, the “Prophylactic antiviral activity SI” value in the series with FIPV strain 79–1146 [3] came to 13.80. In addition, the “concentration that completely protects the cells from virus infection” value in the series with FIPV strain 79–1146 [3] (CRFK cells) was in the range of 20 to 50 µM.

With `Cc1ccc(S(=O)(=O)N/N=C\C=C\c2ccccc2)cc1` [CID5372747], the CC50 in the series with CRFK cells is 336.2 ± 0.13 µM. The half-maximal effective concentration (EC50) is greater than 200 µM in the series with FIPV strain 79–1146 [1] (setting [6]), greater than 100 µM in the series on FIPV strain 79–1146 [2] (setting [8]) and greater than 200 µM in the series on FIPV strain 79–1146 [3] (setting [9]). Moreover, the IC50 on FIPV 3CL^pro (setting [7]) is 78.4 ± 2.6 µM. The “control of FIPV infection under all the tested conditions” value (“control of FIPV infection” below) in the series on FIPV strain 79–1146 [4] was “could not control FIPV infection”.

In the case of `O=C1c2cc(O)c(O)cc2OC(c2ccc(O)c(O)c2)C1O` (centres unmarked) [NSC36398], the half-inhibitory concentration (IC50) on FIPV 3CL^pro (setting [7]) was greater than 500 µM.

`CC[C@](C)(O)C(=O)O[C@H]1C(=O)O[C@@H]2C[C@H]3C(C)=C[C@H](O)[C@@H](O)[C@]3(C)[C@H]3[C@]4(O)OC[C@]32[C@@H]1[C@@H](C)[C@H]4O` [NSC14975] gave a concentration for half-maximal inhibition (IC50) against FIPV 3CL^pro (setting [5]) greater than 500 µM.

Turning to `O=c1cc(-c2ccc(O)c(O)c2)oc2cc(OCc3ccccc3)cc(O)c12` [CID71313853], on FIPV 3CL^pro (setting [7]), the concentration for half-maximal inhibition (IC50) is greater than 500 µM.

For `CC(=O)O[C@@H]1[C@@H](O)C2=C3[C@]4(C)[C@@H]1C(C)(C)C(=O)C[C@@H]4[C@]3(O)[C@H](OC(C)=O)[C@@]1(C[C@@H]1C)C2=O` [NSC270914], the IC50 on FIPV 3CL^pro (setting [7]) was greater than 500 µM.

Take `CC[C@H]1CN2CCc3cc(OC)c(OC)cc3[C@@H]2C[C@@H]1C[C@H]1NCCc2c1[nH]c1ccc(O)cc21` [NSC131547]: on FIPV 3CL^pro (setting [7]), the half-maximal inhibitory concentration (IC50) is greater than 500 µM.

Turning to `COc1cc(O)c2c(=O)cc(-c3ccc(O)c(O)c3)oc2c1` [CID5318214], the CC50 with CRFK cells is 339.3 ± 0.03 µM. In addition, the half-maximal effective concentration (EC50) was greater than 100 µM in the series with FIPV strain 79–1146 [1] (setting [6]), greater than 100 µM in the series on FIPV strain 79–1146 [2] (setting [8]) and greater than 200 µM in the series with FIPV strain 79–1146 [3] (setting [9]). In addition, the half-inhibitory concentration (IC50) at FIPV 3CL^pro (setting [7]) is 28.5 ± 4.2 µM. Further, the “control of FIPV infection” value with FIPV strain 79–1146 [4] was “could not control FIPV infection”.

Take `C[C@]1(O)CC[C@H]2[C@@H]3CC[C@H]4C[C@@H](O)CC[C@]4(C)[C@@]3(F)[C@@H](O)C[C@@]21C` [NSC38273]: the 50% inhibitory concentration (IC50) at FIPV 3CL^pro (setting [7]) was greater than 500 µM.

Regarding `C/C(=C\COc1ccc2ccc(=O)oc2c1)C1=CC(=O)C(C)(C)O1` [NSC142227], on FIPV 3CL^pro (setting [7]), the concentration for half-maximal inhibition (IC50) was greater than 500 µM.

With `C=C1C[C@@]23CC[C@H]4[C@@](C)(CCC[C@@]4(C)C(=O)O)[C@@H]2CC[C@]1(O)C3` [CID452967], on FIPV 3CL^pro (setting [7]), the IC50 was greater than 500 µM.

Regarding `O=C1C(=O)N(Cc2ccc(Cc3ccc(CN4C(=O)C(=O)c5ccccc54)cc3)cc2)c2ccccc21` [CID3821945], the CC50 in the series with CRFK cells turned out to be 306.8 ± 0.175 µM. The figures for the concentration giving a half-maximal response (EC50) with FIPV strain 79–1146 [1] (setting [6]), with FIPV strain 79–1146 [2] (setting [8]) and with FIPV strain 79–1146 [3] (setting [9]) were greater than 100 µM, greater than 100 µM and greater than 200 µM, respectively. Besides, on FIPV 3CL^pro (setting [7]), the 50% inhibitory concentration (IC50) came out at 10.3 ± 2.5 µM. In addition, the “control of FIPV infection” value with FIPV strain 79–1146 [4] was “could not control FIPV infection”.

With `NC(=O)c1ncn([C@@H]2O[C@H](CO)[C@@H](O)[C@H]2O)n1` [Ribavirin, reference compound], the cytotoxic concentration (CC50) at 48 h in the series “Cytotoxicity assay” is greater than 500 µM. Further, the concentration for a half-maximal effect (EC50) is 73.98 ± 0.18 µM in the series with FIPV strain 79–1146 [1] (Alphacoronavirus 1, CRFK); 48.9 ± 1.77 µM in the series on FIPV strain 79–1146 [2] (Alphacoronavirus 1, CRFK); 48.9 to 74 µM in the series on FIPV strain 79–1146 [4]; greater than 200 µM in the series on FIPV strain 79–1146 [3] (Alphacoronavirus 1, CRFK). For the same molecule, the “Post-viral entry SI” value with FIPV strain 79–1146 [1] is 16.96. In addition, in the series with FIPV strain 79–1146 [2], the “Pre-viral entry SI” value was determined as 25.68. In addition, the “antiviral effect in the prophylaxis study” value in the series with FIPV strain 79–1146 [3] (result in words) is “did not show an antiviral effect”.

For `CC1Oc2cc3c(-c4c(O)cc(O)c5c(O)c6c(cc45)OC(C)C(C)C6=O)c(O)cc(O)c3c(O)c2C(=O)C1C` (centres unmarked) [NSC345647, Chaetochromin], the CC50 with CRFK cells was 10.5 ± 0.13 µM. Besides, in the series on FIPV strain 79–1146 [1], the “Post-viral entry SI” value is 2.20. Moreover, the EC50 was found to be 4.87 ± 0.12 µM in the series with FIPV strain 79–1146 [1] (setting [6]), 1.19 ± 0.95 µM with FIPV strain 79–1146 [2] (setting [8]) and 2.85 ± 0.52 µM with FIPV strain 79–1146 [3] (setting [9]). Also, the IC50 on FIPV 3CL^pro (setting [7]) stood at 6.3 ± 2.1 µM. For the same molecule, the “Pre-viral entry SI” value in the series on FIPV strain 79–1146 [2] is listed as 8.88. The “Prophylactic antiviral activity SI” value in the series on FIPV strain 79–1146 [3] came to 3.69. Moreover, in the series with FIPV strain 79–1146 [3] (CRFK cells), the “concentration that completely protects the cells from virus infection” value was 20 to 50 µM.

In the case of `CO[C@H]1C[C@@H]2\C=C(C)/C=C/C=C\C(=O)N[C@H](c3ccccc3)C/C=C/CC[C@H](O)CC(=O)C2=C1O` [NSC343256, Hitachimycin], in the series with CRFK cells, the CC50 came to 56.9 ± 0.73 µM. Besides, the “Post-viral entry SI” value with FIPV strain 79–1146 [1] was found to be 2.77. Besides, the EC50 with FIPV strain 79–1146 [1] (setting [6]) came to 4 ± 0.37 µM; with FIPV strain 79–1146 [2] (setting [8]), 3.83 ± 0.44 µM; in the series on FIPV strain 79–1146 [3] (setting [9]) it was 16.2 ± 1.23 µM. Besides, the IC50 at FIPV 3CL^pro (setting [7]) was 24.5 ± 8.9 µM. Moreover, in the series on FIPV strain 79–1146 [2], the “Pre-viral entry SI” value came to 2.89. For the same molecule, in the series with FIPV strain 79–1146 [3] (CRFK cells), the “concentration that completely protects the cells from virus infection” value lay within 20 to 50 µM.

For `C[C@@H]1O[C@@H](Oc2cc(O)c3c(=O)c(O)c(-c4ccc(O)c(O)c4)oc3c2)[C@H](O)[C@H](O)[C@H]1O` [CID5748601], the CC50 with CRFK cells was found to be 425.3 ± 0.13 µM. Moreover, the EC50 with FIPV strain 79–1146 [1] (setting [6]) is greater than 100 µM; in the series with FIPV strain 79–1146 [2] (setting [8]), greater than 100 µM; with FIPV strain 79–1146 [3] (setting [9]) it was greater than 200 µM. For the same molecule, on FIPV 3CL^pro (setting [7]), the half-maximal inhibitory concentration (IC50) is 77.2 ± 13.8 µM. In the series with FIPV strain 79–1146 [4], the “control of FIPV infection” value is recorded as “could not control FIPV infection”.

In the series “Cytotoxicity assay”, `Cc1cccc(C)c1OCC(=O)N[C@@H](Cc1ccccc1)[C@@H](O)C[C@H](Cc1ccccc1)NC(=O)[C@H](C(C)C)N1CCCNC1=O` [Lopinavir, reference compound] returned a cytotoxic concentration (CC50) at 48 h greater than 500 µM. Besides, the EC50 with FIPV strain 79–1146 [1] (Alphacoronavirus 1, CRFK) is 5.38 ± 2.32 µM; in the series on FIPV strain 79–1146 [2] (Alphacoronavirus 1, CRFK), 8.56 ± 0.47 µM; with FIPV strain 79–1146 [4], 5.38 to 31.7 µM; in the series with FIPV strain 79–1146 [3] (Alphacoronavirus 1, CRFK) it was 31.7 ± 1.37 µM. Also, the “Post-viral entry SI” value with FIPV strain 79–1146 [1] is 97.83. Further, the “Pre-viral entry SI” value with FIPV strain 79–1146 [2] came to 61.52. The IC50 with 3CL^pro of SARS-CoV was roughly 50 µM. For the same molecule, the “Prophylactic antiviral activity SI” value in the series on FIPV strain 79–1146 [3] amounted to 16.61.
